Reference: patent US8597616B2 (priority 2007, dated 2013)

Experiments:
normovolemic swine model = conditions: in vivo
[1] = tested on: swine model of cardiac arrest; conditions: in vivo

CNC[C@H](O)c1ccc(O)c(O)c1 [epinephrine, (R)-4-(1-hydroxy-2-(methylamino)ethyl)benzene-1,2-diol]
increase of MAP over baseline (normovolemic swine model): more than 60 mmHg | time post injection at which increases in MAP were detected (normovolemic swine model): 10 to 20 s | time post injection to peak MAP (normovolemic swine model): ≤ 60 s | sustained MAP (normovolemic swine model; 0.4 mg/kg): more than 60 mmHg | time post-injection at which an increase in MAP was detected (normovolemic swine model; iv): 30 s | time from administration until absorbed and placed into the circulating blood (normovolemic swine model; swine): 10 to 20 s | peak MAP [1]: 90 mmHg | sustained pressure over baseline [1]: greater than 50 mmHg | time post injection at which increases in MAP were detected [1]: 10 to 20 s | time post injection to peak MAP [1]: ≤ 60 s | time to MAP peak at sustained pressure over baseline [1]: ≤ 80 s | time until physiological effects (increase in MAP over baseline MAP) were detected [1]: < 20 seconds | time until rapid and sustained MAP occurred [1]: < 60 s
